{"source": "patent US20110275649A1", "about": "“Combination therapy for the prevention of statin induced diabetes” (Palmetto Pharmaceuticals LLC, priority 2010, published 2011)", "origin": "cited, not measured here", "key": {"[1]": {"tested_on": "3-keto-CoA-thiolase, or 3-KAT"}, "[2]": {"tested_on": "carnitine palmitoyltransferase-1: CPT-1", "conditions": "in vitro studies; e.g. by inhibition of CPT-1"}, "late sodium channel": {"molecular_target": "late sodium channel (Homo sapiens, UniProt Q14524)", "sequence (Q14524 whole entry)": "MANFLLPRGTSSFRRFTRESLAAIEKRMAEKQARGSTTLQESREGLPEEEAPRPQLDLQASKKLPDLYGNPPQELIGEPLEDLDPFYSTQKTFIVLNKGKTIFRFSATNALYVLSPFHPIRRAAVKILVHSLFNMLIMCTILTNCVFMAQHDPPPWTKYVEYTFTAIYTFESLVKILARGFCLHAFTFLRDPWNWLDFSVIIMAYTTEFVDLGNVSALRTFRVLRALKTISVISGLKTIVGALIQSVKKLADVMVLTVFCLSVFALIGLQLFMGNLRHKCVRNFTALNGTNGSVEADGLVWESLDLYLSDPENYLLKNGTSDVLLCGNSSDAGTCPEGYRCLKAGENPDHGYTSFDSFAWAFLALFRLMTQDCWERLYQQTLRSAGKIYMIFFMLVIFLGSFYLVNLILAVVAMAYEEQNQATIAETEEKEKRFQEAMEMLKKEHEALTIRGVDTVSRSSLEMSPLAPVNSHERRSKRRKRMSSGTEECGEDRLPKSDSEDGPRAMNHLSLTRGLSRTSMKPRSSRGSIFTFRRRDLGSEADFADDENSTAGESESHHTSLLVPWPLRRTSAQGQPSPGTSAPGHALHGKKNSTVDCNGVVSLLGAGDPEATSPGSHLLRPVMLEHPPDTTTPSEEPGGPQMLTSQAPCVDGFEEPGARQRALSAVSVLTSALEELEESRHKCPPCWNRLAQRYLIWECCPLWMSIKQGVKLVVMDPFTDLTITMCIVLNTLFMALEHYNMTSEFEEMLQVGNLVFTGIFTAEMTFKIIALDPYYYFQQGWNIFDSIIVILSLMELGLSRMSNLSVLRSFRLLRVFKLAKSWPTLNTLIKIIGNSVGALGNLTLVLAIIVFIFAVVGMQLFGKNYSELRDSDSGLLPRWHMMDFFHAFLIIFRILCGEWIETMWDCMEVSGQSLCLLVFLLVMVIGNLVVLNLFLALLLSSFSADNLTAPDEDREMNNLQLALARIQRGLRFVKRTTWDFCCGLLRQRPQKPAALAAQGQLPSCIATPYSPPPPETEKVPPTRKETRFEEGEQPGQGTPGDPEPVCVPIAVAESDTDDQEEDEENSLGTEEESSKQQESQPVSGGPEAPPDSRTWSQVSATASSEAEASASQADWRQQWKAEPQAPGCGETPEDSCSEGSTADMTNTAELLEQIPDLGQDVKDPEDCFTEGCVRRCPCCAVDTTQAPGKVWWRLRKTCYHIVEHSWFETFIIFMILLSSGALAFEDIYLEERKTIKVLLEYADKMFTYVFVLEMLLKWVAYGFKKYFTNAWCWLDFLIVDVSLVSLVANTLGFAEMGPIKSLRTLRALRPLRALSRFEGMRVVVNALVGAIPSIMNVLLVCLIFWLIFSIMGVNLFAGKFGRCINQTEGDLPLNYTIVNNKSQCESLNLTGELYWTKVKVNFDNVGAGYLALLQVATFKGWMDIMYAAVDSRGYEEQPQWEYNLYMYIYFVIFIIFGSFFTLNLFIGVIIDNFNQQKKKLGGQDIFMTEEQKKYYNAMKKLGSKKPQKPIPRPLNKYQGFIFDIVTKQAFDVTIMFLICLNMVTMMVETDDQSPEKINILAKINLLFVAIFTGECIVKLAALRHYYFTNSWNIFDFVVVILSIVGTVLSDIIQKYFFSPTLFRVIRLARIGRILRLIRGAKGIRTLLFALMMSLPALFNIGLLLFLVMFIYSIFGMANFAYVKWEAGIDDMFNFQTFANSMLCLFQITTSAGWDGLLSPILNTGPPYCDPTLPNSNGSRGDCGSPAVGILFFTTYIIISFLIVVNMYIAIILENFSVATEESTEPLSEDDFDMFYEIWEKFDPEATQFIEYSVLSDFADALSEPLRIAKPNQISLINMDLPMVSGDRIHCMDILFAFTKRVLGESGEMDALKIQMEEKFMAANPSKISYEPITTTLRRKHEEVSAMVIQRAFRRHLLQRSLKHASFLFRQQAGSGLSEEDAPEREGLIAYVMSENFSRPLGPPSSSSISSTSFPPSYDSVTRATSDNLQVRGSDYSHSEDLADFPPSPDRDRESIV"}, "[3]": {"conditions": "compared with pravastatin"}, "[4]": {"conditions": "JUPITER trial"}, "CYP3A4": {"molecular_target": "CYP3A4 (Homo sapiens, UniProt P08684)", "sequence (P08684 whole entry)": "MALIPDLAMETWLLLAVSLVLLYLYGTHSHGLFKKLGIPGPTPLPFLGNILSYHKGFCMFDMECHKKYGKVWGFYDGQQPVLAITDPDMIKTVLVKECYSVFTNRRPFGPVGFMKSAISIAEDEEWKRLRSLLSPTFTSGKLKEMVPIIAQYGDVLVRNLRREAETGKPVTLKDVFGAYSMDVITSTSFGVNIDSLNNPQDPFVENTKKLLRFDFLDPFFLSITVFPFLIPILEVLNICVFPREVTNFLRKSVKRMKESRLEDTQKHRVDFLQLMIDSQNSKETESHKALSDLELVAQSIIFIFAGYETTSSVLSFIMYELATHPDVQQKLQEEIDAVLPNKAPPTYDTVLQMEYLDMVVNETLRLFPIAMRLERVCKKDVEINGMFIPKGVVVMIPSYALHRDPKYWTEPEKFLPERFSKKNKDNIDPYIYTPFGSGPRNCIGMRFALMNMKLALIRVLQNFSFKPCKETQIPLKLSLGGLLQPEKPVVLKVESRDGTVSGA"}}, "data": [{"smiles": "CC[C@H](C)C(=O)O[C@H]1C[C@H](O)C=C2C=C[C@H](C)[C@H](CC[C@@H](O)C[C@@H](O)CC(=O)O)[C@H]21", "note": "[pravastatin]", "values": [{"measurement": "lipid / water solubility", "result": "water soluble"}]}, {"smiles": "COc1ccc(CN2CCNCC2)c(OC)c1OC", "note": "[trimetazidine]", "values": [{"measurement": "inhibition of 3-KAT", "setting": "[1]", "result": "inhibition of the enzyme 3-keto-CoA-thiolase"}]}, {"smiles": "C1CCC(C(CC2CCCCN2)C2CCCCC2)CC1", "note": "(stereo not drawn) [perhexiline]", "values": [{"measurement": "myocardial fatty acid catabolism", "setting": "[2]", "result": "causes inhibition of myocardial fatty acid catabolism"}]}, {"smiles": "COc1ccccc1OCC(O)CN1CCN(CC(=O)Nc2c(C)cccc2C)CC1", "note": "(stereo not drawn) [ranolazine]", "values": [{"measurement": "arrhythmogenic events from QT prolongation", "setting": "QT interval; Merlin-TIMI 36", "result": "did not cause excess arrythmogenic events"}, {"measurement": "QT interval", "setting": "QT interval; in vivo", "result": "causes QT interval prolongation"}, {"measurement": "late sodium channel inhibition", "setting": "late sodium channel", "result": "inhibits the late sodium channel"}]}, {"smiles": "CC(C)c1c(C(=O)Nc2ccccc2)c(-c2ccccc2)c(-c2ccc(F)cc2)n1CC[C@@H](O)C[C@@H](O)CC(=O)O", "note": "[atorvastatin]", "values": [{"measurement": "likelihood to induce diabetes", "setting": "[3]", "result": "much more likely to induce diabetes than pravastatin"}]}, {"smiles": "CC(C)c1nc(N(C)S(C)(=O)=O)nc(-c2ccc(F)cc2)c1/C=C/[C@@H](O)C[C@@H](O)CC(=O)O", "note": "[rosuvastatin]", "values": [{"measurement": "diabetes in the group receiving the statin", "setting": "[4]", "result": "increase in diabetes"}]}, {"smiles": "O=C(O)C[C@H](O)C[C@H](O)/C=C/c1c(C2CC2)nc2ccccc2c1-c1ccc(F)cc1", "note": "[pitavastatin]", "values": [{"measurement": "metabolism by CYP3A4", "setting": "CYP3A4", "result": "does not undergo metabolism by the 3A4 system"}]}]}
